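Interpolation was linear, between the two tested concentrations surrounding the appropriate level; five concentrations were tested over 48 hours in 96-well plates. GI50: concentration for 50% inhibition of growth. At the TGI there is no net growth.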
Columns and labels:
Test in all cases: growth of human tumour cells (NCI), 48 h
DU-145 prostate = tested on: DU-145 prostate
KM12 colon = tested on: KM12 colon
MALME-3M melanoma = tested on: MALME-3M melanoma
OVCAR-5 ovarian = tested on: OVCAR-5 ovarian
OVCAR-8 ovarian = tested on: OVCAR-8 ovarian
SF-268 CNS = tested on: SF-268 CNS
SF-539 CNS = tested on: SF-539 CNS
SK-MEL-5 melanoma = tested on: SK-MEL-5 melanoma
TK-10 renal = tested on: TK-10 renal
UACC-62 melanoma = tested on: UACC-62 melanoma

Structure (SMILES)	TGI (DU-145 prostate)	TGI (KM12 colon)	TGI (MALME-3M melanoma)	TGI (OVCAR-5 ovarian)	TGI (OVCAR-8 ovarian)	TGI (SF-268 CNS)	TGI (SF-539 CNS)	TGI (SK-MEL-5 melanoma)	TGI (TK-10 renal)	TGI (UACC-62 melanoma)	GI50 (DU-145 prostate)	GI50 (KM12 colon)	GI50 (MALME-3M melanoma)	GI50 (OVCAR-5 ovarian)	GI50 (OVCAR-8 ovarian)	GI50 (SF-268 CNS)	GI50 (SF-539 CNS)	GI50 (SK-MEL-5 melanoma)	GI50 (TK-10 renal)	GI50 (UACC-62 melanoma)
CN(O)C(=S)c1ccccc1	> 100 µM	31.8 µM	> 100 µM	> 100 µM	33.2 µM	> 100 µM	63.1 µM	16.3 µM	> 100 µM	6.21 µM	–	–	–	–	–	–	–	–	–	–
CC1CCc2c(c(CC3CC(=O)NC(=O)C3)nn2-c2ccccc2)C1 (stereo not given)	> 100 µM	> 100 µM	> 100 µM	> 100 µM	> 100 µM	> 100 µM	> 100 µM	> 100 µM	> 100 µM	> 100 µM	–	–	–	–	–	–	–	–	–	–
O=C(Nc1cccc(Cl)c1)c1cc(N=Nc2ccc([N+](=O)[O-])cc2Cl)ccc1O	8.72 µM	4.61 µM	5.92 µM	10.6 µM	18 µM	11.4 µM	8.61 µM	3.81 µM	6.92 µM	6.65 µM	1.43 µM	1.57 µM	2.17 µM	2.81 µM	3.04 µM	2.22 µM	2.41 µM	1.86 µM	2.24 µM	2.44 µM
CCOc1c(C#N)c2c(N)ncnc2n1C1OC(CO)C(O)C1O (stereo not given)	11.8 µM	> 44.2 µM	24.2 µM	> 100 µM	> 100 µM	65.4 µM	50 µM	16.6 µM	> 28 µM	10 µM	2.72 µM	3.11 µM	3.62 µM	7.02 µM	4.81 µM	3.37 µM	4.06 µM	3.79 µM	3.05 µM	2.76 µM
CC[C@]12C=CCN3CC[C@@]4(c5ccc(OC)cc5N(C)[C@H]4[C@@](O)(C(=O)OC)[C@@H]1OC(=O)CCC(=O)N[C@H](Cc1c[nH]c4ccccc14)C(=O)OC)[C@@H]32	20.3 µM	36 µM	8.09 µM	45 µM	35 µM	25.9 µM	7.06 µM	7.14 µM	29.4 µM	7.19 µM	4.44 µM	10.1 µM	2.6 µM	14.1 µM	7.78 µM	4.88 µM	2.63 µM	2.54 µM	13.5 µM	2.42 µM
CCOC(=O)c1cc(-c2ccc(OC)c(OC)c2)[nH]c1N/N=C/c1c(Cl)cccc1Cl	8.5 µM	9.98 µM	16.7 µM	20.3 µM	> 100 µM	39.9 µM	5.27 µM	8.33 µM	11.4 µM	6.64 µM	2.38 µM	0.636 µM	2.88 µM	4.56 µM	3.69 µM	2.29 µM	1.44 µM	0.956 µM	2.5 µM	0.704 µM
CC(O)CN1c2ccccc2Sc2ccc(Cl)cc21 (stereo not given)	> 10 µM	> 10 µM	> 10 µM	> 10 µM	> 10 µM	> 10 µM	> 10 µM	> 10 µM	> 10 µM	> 10 µM	–	–	–	–	–	–	–	–	–	–

Reference: PubChem BioAssay (NCI)
